Legend:
[1] = biological target: T1, Pyruvate carboxylase (RePC) (Rhizobium etli, UniProt Q2K340); test: X-ray co-crystal structure; format: binding
[2] = biological target: T1, Pyruvate carboxylase (RePC); test: ITC; format: binding

Compound | Kd [1] | Kd [2]
O=C(O)C(=O)O [oxalate] | 130 µM | 
CC(=O)C(=O)O [pyruvate] |  | ~2000 µM
